Assay results: patent US12612371B2, “Sigma-1 receptor ligands and therapeutic uses thereof” (UNIVERSITE DE STRASBOURG, priority 2019, dated 2026)

Molecular target: T1, sigma 1 (h) (Homo sapiens, UniProt Q99720)
T1 construct: incubating Jurkat cell membranes (10-20 mg protein per tube) with [^3H](+) pentazocine; endogenous in cells; host or cells: Jurkat cell membranes
Assay: σ1 binding assay ([3H](+)pentazocine displacement, Jurkat cell membranes)
Conditions: compound at 10 nM, [3H](+)pentazocine 15 nM, 37° C., 2 hours, read-out: Sigma-1 receptor % inhibition 10 nM
Procedure: The σ1 binding assays were performed according to Ganapathy et al (Ganapathy, M. E. et al. (1999), J. Pharmacol. Exp. Ther., 28:251-260). The σ1 binding assay was carried out by incubating Jurkat cell membranes (10-20 mg protein per tube) with [^3H](+) pentazocine a selective S1R ligand (15 nM) and a range of concentration of tested compounds, at 37° C. for 2 hours in 5 mM tris/HCl buffer (pH=7.4). The inhibition of [3H]-(+)-pentazocine binding assay is mainly used to determine the inhibition constant (Ki) of potential SIR ligands. These assays are performed with a single concentration of [^3H]-(+)-pentazocine at a concentration near its KD and increasing concentrations of non-radioactive ligands.

T1 sequence (Q99720 whole entry): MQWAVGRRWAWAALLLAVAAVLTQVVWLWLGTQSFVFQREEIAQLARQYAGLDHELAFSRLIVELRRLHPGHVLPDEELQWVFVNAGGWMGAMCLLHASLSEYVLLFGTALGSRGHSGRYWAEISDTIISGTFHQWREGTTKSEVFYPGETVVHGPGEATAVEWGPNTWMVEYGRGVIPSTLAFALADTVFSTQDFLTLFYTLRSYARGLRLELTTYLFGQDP

With `O=c1c(-c2cccc(Cl)c2)ccnn1CCCCN1CCOCC1` [11l, 4-(3-chlorophenyl)-2-[4-(morpholin-4-yl)butyl]-2,3-dihydropyridazin-3-one] the inhibition at 0.01 µM was 69.1%.
